Assays:
intestinal tumorigenesis = tested on: intestinal tumorigenesis
Procedure: Polyamine pools and Enzyme analyses. Tumor tissue was removed from intestine and was snap-frozen and stored at −70° C. Following removal of tumors, the normal small intestinal and colonic mucosa was scraped with a glass slide and snap-frozen. Frozen tissues were crushed into a fine powder. Specimens were homogenized in 1.2N perchloric acid and centrifuged to obtain the soluble supernatant extracts for polyamine analyses. Intracellular polyamine pools and acetylated polyamine pools were extracted with 1.2N perchloric acid, dansylated with dansyl chloride. The derivatized polyamines were separated on and analyzed using high-performance liquid chromatography on 150×4.6 mm ZORBAX SB-C18 column (Agilent) using methods described elsewhere. Polyamines were also quantitated by ELISA kit (Mybiosource, # MBS094198). For analysis of the enzyme activity, intestinal mucosal samples (4 mm^2) were immediately transferred to vials containing 0.5 ml of an ice-cold buffer [50 mM Tris-HCl (pH 7.5), 0.1 mM EDTA, and 0.1 mM pyridoxal phosphate)] and then homogenized and centrifuged. SSAT and ODC activities were determined by using C-labeled substrates and scintillation counting of end products produced as described previously (31) (or Cancer research SSAT mice).

BMDCs = tested on: BMDCs
Procedure: (§1) Generation of mouse and human DCs. For the generation of mouse DCs, bone marrow cells were harvested from the femurs and tibias of mice and cultured in 6-well tissue culture plates (Costar) for 8 days in complete medium supplemented with 20 ng/ml GM-CSF and 10 ng/ml IL-4. BDNs, BDN-derived lipid or SFN was added to some wells on day 0. To obtain human DCs, peripheral blood mononuclear cells were isolated from healthy donors by Ficoll-Hypaque Plus (GE Healthcare). These studies were approved by the Institutional Review Board of University of Louisville. Monocytes were purified by a discontinuous Percoll gradient (GE Healthcare) and positive selection with the Monocyte Isolation kit (purity, >90%; Miltenyi Biotec). Monocytes were cultured in RPMI-1640 complete medium supplemented with 10% (vol/vol) heat-inactivated PCS, gentamicin ([…]), 2-mercaptoethanol (50 μM) and L-glutamine (2 mM; all from Gibco) containing IL-4 (5 ng/ml; Sigma) and recombinant human GM-CSF (35 ng/ml; Sigma) with or without SFN (10 μM). In some experiments, DCs were exposed for 24 h to LPS (100 ng/ml) with or without SFN.

CD4+ T cells = tested on: CD4+ T cells
Procedure: as §1

[1] = tested on: human monocyte-derived DCs; conditions: LPS 100 ng/ml, western blot
Procedure: Western blot analysis. […] Images have been cropped for presentation.
as §1

DSS-induced colitis = test: Transfer of BMDCs treated with LN SFN knock-out / knock-in nanoparticles into mice with DSS colitis; type: in vivo, mouse
Procedure: FIGS. 7A-7F include graphs and images showing that BDN SFN protects colitis by inducing regulatory DCs, including graphs and images showing: (FIG. 7A) the lipids extracted from BDN-derived liposome-like nanoparticles (LN) or LN with SFN knock-out (LN-SFN^−/− or knock-in (LN-SFN^+/+) and a standard SFN were separated on a thin-layer chromatography plate and developed, where a representative image was scanned using an Odyssey Scanner; (FIGS. 7B-7D) BMDCs that were treated with CBA (20 μg/ml) for 24-48 hr in the presence of DMSO, LN-SFN^−/− or LN-SFN^+/+ and were injected i.v. […] (FIG. 7E) cytokine analysis by qRT-PCR of RNA recovered from colonic LPL1; and (FIG. 7F) the cell number of CD11b^+ DCs isolated from colon and MLN in DSS-induced colitis after adoptive transfer, where data are mean±SEM. (n=5), *P<0.05, **P<0.01 (Student's t-test). Lipid extraction, TLC and lipidomic analysis. Total lipid extraction from BDNs was performed according to the method of Bligh and Dyer, and the lipids were dissolved in chloroform or methanol for analysis. […] Developed plates were initially air-dried, then sprayed with CuSO4-phosphoric acid reagent (10% CuSO4 in 8% phosphoric acid), and followed by charring at 100° C. for 10 min. […] Total lipids were determined using the phosphate assay as described previously. […] Colitis was assessed as described above.

MC38 colon cancer cells = MC38 colon cancer cells treated with SFN or BDN-derived lipids (RT-PCR); type: cell-based, mouse
Procedure: RNA extraction and PCR. Total RNA was isolated from the small intestine and colon or tumor tissue using the Qiagen RNeasy RNA isolation Kit and was used to synthesize cDNA. RNA (1 μg) was reverse-transcribed with Superscript III and random primers (Invitrogen). For quantitation of genes of interest, cDNA samples were amplified in a CFX96 Realtime System (Bio-Rad Laboratories, Hercules, Calif., USA) using SYBR Green Master Mix (Invitrogen) and specific primers (Table 2) according to the manufacturer's instructions. Fold changes in mRNA expression between treatments and controls were determined by the […] as described. Results for each sample were normalized to the concentration of GAPDH mRNA measured in the same samples and expressed as fold increase over baseline levels, which are set at a value of 1. Differences between groups were determined using a two-sided Student's t-test and one-way ANOVA. Error bars on plots represent±SEM, unless otherwise noted. All primers were purchased from Eurofins MWG Operon.

[2] = SFN 10 μM + GM-CSF vs GM-CSF alone

NCCCCN [putrescine]
polyamines pool in the small intestine (intestinal tumorigenesis; 1% in drinking water): large increase | tumor number (intestinal tumorigenesis; APC^Min/+CSN8^fl/fl mice, vs control mice): an increase, but not statistically significant increase | epithelial cell proliferation (Ki-67) in the small intestines (intestinal tumorigenesis; APC^Min/+CSN8^ΔIEC): stimulated | polyp numbers in the small intestines (intestinal tumorigenesis; APC^Min/+CSN8^ΔIEC): strikingly increased | expression of nuclear Stat3, c-Myc and p21^(Cip1/WAF1) (intestinal tumorigenesis; APC^Min/+CSN8^ΔIEC mice, to that seen in APC^Min/+CSN8^fl/fl): restored the expression | polyp number in the colon (intestinal tumorigenesis; mouse, in vivo): no effect

C[S+]([O-])CCCCN=C=S (stereo not drawn) [SFN, Sulforaphane]
IL-10 production (ELISA) (BMDCs; LPS 18 h, vs LPS alone): more IL-10 | IL-12, IL-23 production (ELISA) (BMDCs; LPS 18 h, vs LPS alone): produced less IL-12, IL-23 | expression of CD11c (BMDCs; [2]): lower expression of CD11c | expression of PD-L1 (BMDCs; [2]): higher expression of PD-L1 | CD25 on CD4+ T cells induced by DC^SFN (CD4+ T cells; vs DC^DMSO): lower expression | PD-1 on CD4+ T cells induced by DC^SFN (CD4+ T cells; vs DC^DMSO): higher levels | IFN-γ production by CD4+ T cells primed with LPS-DC^SFN (CD4+ T cells; vs LPS-treated DC^DMSO): less IFN-γ | IL-10 production by CD4+ T cells primed with LPS-DC^SFN (CD4+ T cells; vs LPS-treated DC^DMSO): more IL-10 | IFN-γ production by CD4 T cells primed with DC^SFN (CD4+ T cells; without LPS, vs DC^DMSO): negligible production of IFN-γ | phosphorylation of AMPK at Thr172 [1]: increased phosphorylation of AMPK at Thr172 | phosphorylation of S6 and p70S6K [1]: decreased S6 phosphorylation | numbers of transferred BMDC reaching the MLNs and colon (DSS-induced colitis): lower numbers | expression of CSN8 and ODC (MC38 colon cancer cells; RT-PCR, vs DMSO): inhibited | expression of Nrf2 and SSAT1 (MC38 colon cancer cells; RT-PCR, vs DMSO): strongly activated | increase in SSAT1 caused by SFN (MC38 colon cancer cells; knockdown of both Nrf2 and CSN8): significantly inhibited the increase

Reference: patent US20200046788A1, “COMPOSITIONS AND METHODS FOR TREATMENT OF INTESTINAL INFLAMMATION AND COLON CANCER” (University of Louisville Research Foundation, Inc., priority 2016, published 2020)
